Experimental findings from patent publication US8592594B2, “Tetrahydro-quinoline derivatives” (Hoffmann-La Roche Inc., priority 2010, dated 2013) are described below.

SMILES strings stand for the structures.

This assay concerns recombinant AMPK proteins (α1β1γ1, α2β1γ1, α1(1-335), α1(1-394) or α2(1-394)). The experiment in a line: Scintillation Proximity Assay (SPA), AMPK activation. The class given is biochemical, human. Conditions: effective concentration of activator for 50% of maximal enzyme activity; 50 nM AMPK, 2 μM ATP, 2 μM biotin-SAMS, 30° C., 2 hours. The procedure:
Recombinant human AMPK α1β1γ1, α2β1γ1 or AMPK α subunit truncations α1(1-335), α1(1-394) and α2(1-394) were constructed, expressed and purified as described previously (Pang, T., Zhang, Z. S., Gu, M., Qiu, B. Y., Yu, L. F., Cao, P. R., Shao, W., Su, M. B., Li, J. Y., Nan, F. J., and Li, J. (2008). Rat liver AMPK heterotrimer enzyme was obtained from Upstate (Billerica, Mass., U.S.A.).
Scintillation Proximity Assay
Before the Scintillation Proximity Assay (SPA) assay, 200 nM recombinant AMPK proteins (α1β1γ1, α2β1γ1, α1(1-335), α1(1-394) or α2(1-394)) were fully phosphorylated as described previously (Pang et al., 2008). SPA reactions were performed in 96-well plates at a final volume of 50 μL containing 20 mM Tris-HCl pH 7.5, 5 mM MgCl2, 1 mM DTT, 2 μM biotin-SAMS, 2 μM ATP, 0.2 μCi/well [γ-^33P]ATP, and various amount of activator. Reactions were initiated by the addition of 50 nM recombinant AMPK proteins to the reaction solutions and incubated at 30° C. for 2 hours. After that, reactions were terminated by the addition of 40 μL stop solution containing 80 μg streptavidin-coated SPA beads per well, 50 mM ED TA, 0.1% Triton X-100 in PBS, pH 7.5 and incubated for 1 hour. Finally, a 160 μL suspension solution containing 2.4 M CsCl, 50 mM EDTA, and 0.1% Triton X-100 in PBS (pH 7.5) was added to the reaction solution to suspend SPA beads completely. SPA signals were determined with a Wallac MicroBeta plate counter (PerkinElmer) 30 min later for calculation of the amount of product formed. The amount of products formed in 2 hour was plotted against activator concentrations to determine the effective concentration of the activator (EC50) required for 50% of maximal enzyme activity.
Background: Scintillation proximity formats need no separation of bound from free tracer.
With `O=C(NC1CCC1)c1ccc2c(c1)C1(CCCC1)CC(c1cccc(F)c1)N2` (centres unmarked) [Example 62, 2-(3-Fluoro-phenyl)-spiro(cyclopentane-1,4′-1′,2′,3′,4′-tetrahydroquinoline)-6-carboxylic acid cyclobutylamide], the EC50 was found to be 1.59 µM.
For `CNC(=O)c1ccc2c(c1)C1(CCCC1)CC(c1cccc(N3CCOCC3)c1)N2` (centres unmarked) [Example 63, 2-(3-Morpholin-4-yl-phenyl)-spiro(cyclopentane-1,4′-1′,2′,3′,4′-tetrahydroquinoline)-6-carboxylic acid methylamide] the value was 2.37 µM; for `O=C(NC1CCC1)c1ccc2c(c1)C1(CCCC1)CC(c1cc(Cl)ccc1F)N2` (centres unmarked) [Example 64, 2-(5-Chloro-2-fluoro-phenyl)-spiro(cyclopentane-1,4′-1′,2′,3′,4′-tetrahydroquinoline)-6-carboxylic acid cyclobutylamide], 7.68 µM.
As to `CC1(C)CC(c2cc(Cl)ccc2Cl)Nc2ccc(C(=O)NC3CCC3)cc21` (centres unmarked) [Example 66, 2-(2,5-Dichloro-phenyl)-4,4-dimethyl-1,2,3,4-tetrahydro-quinoline-6-carboxylic acid cyclobutylamide], the EC50 stood at 5.53 µM.
For `CC1(C)CC(c2cc(Cl)ccc2F)Nc2ccc(C(=O)NC3CCC3)cc21` (centres unmarked) [Example 67, 2-(5-Chloro-2-fluoro-phenyl)-4,4-dimethyl-1,2,3,4-tetrahydro-quinoline-6-carboxylic acid cyclobutylamide] the value was 15.1 µM; for `CC(CO)(CO)NC(=O)c1ccc2c(c1)C(C)(C)CC(c1cccc(N3CCOCC3)c1)N2` (centres unmarked) [Example 68, 4,4-Dimethyl-2-(3-morpholin-4-yl-phenyl)-1,2,3,4-tetrahydro-quinoline-6-carboxylic acid (2-hydroxy-1-hydroxymethyl-1-methyl-ethyl)-amide], 1.56 µM; for `O=C(NC1CCC1)c1ccc2c(c1)C1(CCCC1)CC(c1ccc(F)c(Cl)c1)N2` (centres unmarked) [Example 69, 2-(3-Chloro-4-fluoro-phenyl)-spiro(cyclopentane-1,4′-1′,2′,3′,4′-tetrahydroquinoline)-6-carboxylic acid cyclobutylamide], 4.18 µM.
Turning to `CCC1(C)CC(c2ccc(F)c(Cl)c2)Nc2ccc(C(=O)NC3CCC3)nc21` (centres unmarked) [Example 70, 6-(3-Chloro-4-fluoro-phenyl)-8-ethyl-8-methyl-5,6,7,8-tetrahydro-[1,5]naphthyridine-2-carboxylic acid cyclobutylamide], the EC50 came to 9.17 µM.

Broadly, the EC50 is the concentration that produces a half-maximal response.
